Experimental data published in publication PMC8623273, “Novel N7-Arylmethyl Substituted Dinucleotide mRNA 5′ cap Analogs: Synthesis and Evaluation as Modulators of Translation” (Pharmaceutics, 2021).

Columns and labels:
eIF4E [1] = target: T1, eIF4E (Mus musculus, UniProt P63073); test: fluorescence anisotropy (FA) competition assay with eIF4E; format: binding; conditions: Table S2; for EC50: 25 °C, probe m^7GTP-triazol-FAM 10 nM, eIF4E 100 nM; for Kd: calculated from EC50
Excerpt: The KD values determined from the high-throughput assay were in qualitative agreement with data from time-synchronized fluorescence quenching titration, justifying the use of the former for evaluation of the whole set of caps. […] To additionally verify the binding affinity data (especially for 1q and 1r, as mentioned above), we determined the binding affinities for all analogs using another independent assay, based on fluorescence anisotropy. The KD data determined by this method correlated very well with the results reported above (Table S2, Figure S2).
Fractions of the compounds were independently tested using a different method based on fluorescence anisotropy (FA). These experiments were performed on a Synergy™ H1 plate reader in 96-well, black, non-binding assay plates. Each well contained appropriate buffer (50 mM HEPES/KOH pH 7.2, 100 mM KCl, 0.5 mM EDTA i 1 mM DTT), the fluorescent probe m^7GTP-triazol-FAM (10 nM), substrate (in a 2.08-fold dilution, starting from 60 μM) and protein eIF4E (100 nM). The m^7GTP-triazol-FAM was synthesized as describer earlier. All measurements were performed at 25 °C. Determined EC50 values were means ± SD of three independent experiments. The dissociation constants KD were then calculated using the equation described by Nikolovska-Coleska as described earlier.

A549 cells = test: translational efficiency of mRNAs capped with the analogs in A549 cells (Gaussia luciferase); format: cell-based
Procedure: Finally, we tested the properties of arylmethyl cap analogs as reagents for co-transcriptional mRNA capping. […] Here, we sought to evaluate the translational properties of mRNAs capped with N7-arylmethyl analogs in cultured cells. To that end, the translation properties of transcripts capped with selected analogs were assessed in A549 cells. In vitro transcribed mRNAs encoding Gaussia luciferase, capped with compounds 1a–1k, 1m–1n, and 1p–1r or with reference analogues m^7GpppG and ARCA (m^7GmpppG), were purified via RP HPLC, transfected into A549 cells, and the protein activity (luminescence) was measured using a reporter assay at 72 h post-transfection. The total amount of protein produced over 72 h from each capped RNA was normalized to m^7GpppG RNA (Figure 6 and Figure S4). […] Namely, replacing the N7-methyl group with a benzyl moiety (1a) increased protein production over fivefold in A549 cells compared to m^7GpppG-capped mRNA (Figure 6).
The influence of N7-arylmethylated dinucleotide 5′ cap analogues on the translational properties of HPLC-purified IVT mRNA is shown in Figure S4, Measurements are total protein produced over 72 h by A549 cells transfected with capped mRNAs. Each plot in Figure S4 represents a single experiment consisting of three independent transfections of the cells at the same passage. Bars show mean value normalized to […] ± SD. In the main manuscript, all nine data points from three different cell passages were combined to present cumulative protein expression.

eIF4E [2] = target: T1, eIF4E; test: time-synchronized fluorescence quenching titration with eIF4E; format: binding; conditions: 50 mM Hepes pH 7.2, 134.5 mM KCl, 20 °C, read-out: KD Cap-eIF4E ± SD (value in brackets) (converted)
Excerpt: High affinity for eIF4E is a desirable feature of cap analogs designed for modulating translation, either as small molecules or as a part of mRNA. Thus, we studied how different substituents at the N7-position affected eIF4E-cap interaction. To this end, we first determined the affinity of m^7GpppG and Bn^7GpppG (1a) using time-synchronized fluorescence quenching titration, a very precise and well-established, but low-throughput method. Next, to evaluate the whole set of the synthesized compounds (1a–1r), we used a high-throughput competitive-binding assay based on a pyrene-labeled fluorescent probe. From this assay we determined relative affinities of the compounds represented by half-effective concentrations (EC50) (Figure 3A–C), which were then used to calculate dissociation constant (KD) values for cap analog–eIF4E complexes using previously reported equations (Table 2, Figure 3D).

[3] = system: translation in vitro (RRL); design: method as in PMID 15317978; conditions: cap incorporated into mRNA; cited from earlier work
hDcpS = target: T2, hDcpS (Homo sapiens, UniProt Q96C86); format: in vitro ADME; conditions: 100 μM compound, 20 nM hDcpS; for hDcpS Assay: fraction of the cap remaining after 1 h incubation with DcpS: 37 °C
T2 sequence (Q96C86 1-337): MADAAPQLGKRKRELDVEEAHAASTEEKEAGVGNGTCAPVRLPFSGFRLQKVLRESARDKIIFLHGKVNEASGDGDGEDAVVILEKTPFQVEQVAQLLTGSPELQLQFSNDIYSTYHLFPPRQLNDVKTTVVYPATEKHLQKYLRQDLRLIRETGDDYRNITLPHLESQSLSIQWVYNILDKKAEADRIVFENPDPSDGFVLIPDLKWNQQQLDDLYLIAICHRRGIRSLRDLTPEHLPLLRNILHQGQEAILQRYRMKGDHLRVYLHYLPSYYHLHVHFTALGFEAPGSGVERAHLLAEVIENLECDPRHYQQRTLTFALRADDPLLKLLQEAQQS
Procedure: Susceptibility to decapping scavenger (DcpS) is one of the factors that could potentially influence the cellular stability of mono- and dinucleotide cap analogs designed as translational inhibitors. Therefore, we studied the susceptibility of arylmethyl-modified dinucleotides to DcpS. The compounds (at 100 μM concentration each) were incubated with 20 nM of hDcpS, and the hydrolysis progress at different time points was analyzed via RP HPLC and compared to m^7GpppG (Figure 4 and Figure S3).
The enzymatic activity of DcpS was assayed at 37 °C in 50 mM Tris∙HCl, pH 7.6 containing 200 mM KCl, 0.5 mM EDTA. DcpS cleavage assays were carried out with 100 μM of the tested compound and 20 nM (monomer) of the hDcpS. Enzymatic reaction progress was examined after 30, 60 and 180 min. As a control, a sample was examined before adding enzyme. Aliquots of 15 μL were terminated by heat inactivation of the enzyme for 3 min at 98 °C. The samples were analyzed via RP HPLC equipped with a Supelcosil LC-18-T column (4.6 × 250 mm, 5 μm, flow rate 1.3 mL/min).

T1 sequence (P63073 whole entry): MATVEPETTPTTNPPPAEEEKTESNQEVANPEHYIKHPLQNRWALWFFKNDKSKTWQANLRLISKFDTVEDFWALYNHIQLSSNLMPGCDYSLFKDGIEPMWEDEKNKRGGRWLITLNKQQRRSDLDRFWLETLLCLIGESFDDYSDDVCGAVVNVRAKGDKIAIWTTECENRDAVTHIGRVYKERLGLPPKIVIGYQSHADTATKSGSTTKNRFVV

| SMILES | EC50 (eIF4E [1]) | Kd (eIF4E [1]) | increase of protein production compared to m^7GpppG-capped mRNA (A549 cells; A549 cells, 72 h) | Kd (eIF4E [2]) | translation efficiency in vitro relative to m^7GpppG-capped mRNAs [3] | conversion after 1 h of incubation with hDcpS (hDcpS) | hDcpS Assay: fraction of the cap remaining after 1 h incubation with DcpS (hDcpS) | susceptibility to hDcpS (in words) (hDcpS) | increase of protein production compared to ARCA (A549 cells; A549 cells, 72 h) | change of protein expression of ARCA analog compared to 2'-O-unmethylated counterpart (1q vs 1a, 1r vs 1h) (A549 cells; A549 cells, 72 h) | Rel. Protein Expression (A549 cells; mRNA capped with the analog, Gaussia luciferase activity in A549 cells 72 h post-transfection, normalized to m^7GpppG RNA) |
| --- | --- | --- | --- | --- | --- | --- | --- | --- | --- | --- | --- |
| Nc1nc(O)c2c(n1)n([C@@H]1O[C@H](COP(=O)(O)OP(=O)([O-])OP(=O)(O)OC[C@H]3O[C@@H](n4cnc5c(=O)[nH]c(N)nc54)[C@H](O)[C@@H]3O)[C@@H](O)[C@H]1O)c[n+]2Cc1ccccc1 [1a, Bn^7GpppG] | 270 ± 20 nM | 74 ± 23 nM | over fivefold | 107 nM | almost twofold higher | approximately 50% | 0.51 | – | – | – | – |
| Cc1cccc(C[n+]2cn([C@@H]3O[C@H](COP(=O)(O)OP(=O)([O-])OP(=O)(O)OC[C@H]4O[C@@H](n5cnc6c(=O)[nH]c(N)nc65)[C@H](O)[C@@H]4O)[C@@H](O)[C@H]3O)c3nc(N)nc(O)c32)c1 [1c, 3-MeBn^7GpppG] | 670 ± 20 nM | 222 ± 8 nM | – | – | – | – | 0.84 | very slowly hydrolyzed | – | – | – |
| CC(C)c1ccc(C[n+]2cn([C@@H]3O[C@H](COP(=O)(O)OP(=O)([O-])OP(=O)(O)OC[C@H]4O[C@@H](n5cnc6c(=O)[nH]c(N)nc65)[C@H](O)[C@@H]4O)[C@@H](O)[C@H]3O)c3nc(N)nc(O)c32)cc1 [1e, 4-iPrBn^7GpppG] | 1300 ± 90 nM | 444 ± 33 nM | – | – | – | – | 0.94 | Lower susceptibility to hydrolysis | – | – | – |
| Nc1nc(O)c2c(n1)n([C@@H]1O[C@H](COP(=O)(O)OP(=O)([O-])OP(=O)(O)OC[C@H]3O[C@@H](n4cnc5c(=O)[nH]c(N)nc54)[C@H](O)[C@@H]3O)[C@@H](O)[C@H]1O)c[n+]2Cc1ccc(F)cc1 [1g, 4-F-Bn^7GpppG] | 240 ± 80 nM | 64 ± 31 nM | – | – | – | ~70% | 0.76 | – | – | – | – |
| Nc1nc(O)c2c(n1)n([C@@H]1O[C@H](COP(=O)(O)OP(=O)([O-])OP(=O)(O)OC[C@H]3O[C@@H](n4cnc5c(=O)[nH]c(N)nc54)[C@H](O)[C@@H]3O)[C@@H](O)[C@H]1O)c[n+]2Cc1ccc(Cl)cc1 [1h, 4-Cl-Bn^7GpppG] | 340 ± 140 nM | 102 ± 53 nM | – | – | – | ~70% | 0.67 | – | 2.5 fold | – | – |
| Nc1nc(O)c2c(n1)n([C@@H]1O[C@H](COP(=O)(O)OP(=O)([O-])OP(=O)(O)OC[C@H]3O[C@@H](n4cnc5c(=O)[nH]c(N)nc54)[C@H](O)[C@@H]3O)[C@@H](O)[C@H]1O)c[n+]2Cc1ccc(Br)cc1 [1i, 4-Br-Bn^7GpppG] | 210 ± 10 nM | 52 ± 3 nM | – | – | – | ~70% | 0.60 | – | – | – | – |
| Nc1nc(O)c2c(n1)n([C@@H]1O[C@H](COP(=O)(O)OP(=O)([O-])OP(=O)(O)OC[C@H]3O[C@@H](n4cnc5c(=O)[nH]c(N)nc54)[C@H](O)[C@@H]3O)[C@@H](O)[C@H]1O)c[n+]2Cc1ccc(F)c(F)c1 [1k, 3,4-di-F-Bn^7GpppG] | 880 ± 80 nM | 301 ± 30 nM | – | – | – | ~70% | 0.70 | – | – | – | – |
| Nc1nc(O)c2c(n1)n([C@@H]1O[C@H](COP(=O)(O)OP(=O)([O-])OP(=O)(O)OC[C@H]3O[C@@H](n4cnc5c(=O)[nH]c(N)nc54)[C@H](O)[C@@H]3O)[C@@H](O)[C@H]1O)c[n+]2Cc1ccc(C(F)(F)F)cc1 [1l, 4-CF3-Bn^7GpppG] | 590 ± 40 nM | 194 ± 17 nM | – | – | – | – | 0.87 | Lower susceptibility to hydrolysis | – | – | – |
| Nc1nc(O)c2c(n1)n([C@@H]1O[C@H](COP(=O)(O)OP(=O)([O-])OP(=O)(O)OC[C@H]3O[C@@H](n4cnc5c(=O)[nH]c(N)nc54)[C@H](O)[C@@H]3O)[C@@H](O)[C@H]1O)c[n+]2Cc1ccc([N+](=O)[O-])cc1 [1n, 4-NO2-Bn^7GpppG] | 520 ± 120 nM | 168 ± 43 nM | – | – | – | ~70% | 0.75 | – | – | – | – |
| CO[C@@H]1[C@H](O)[C@@H](COP(=O)(O)OP(=O)([O-])OP(=O)(O)OC[C@H]2O[C@@H](n3cnc4c(=O)[nH]c(N)nc43)[C@H](O)[C@@H]2O)O[C@H]1n1c[n+](Cc2ccccc2)c2c(O)nc(N)nc21 [1q, Bn^7GmpppG] | 180 ± 30 nM | 40 ± 11 nM | – | – | – | – | 0.97 | resistant to hDcpS | – | additional twofold increase | – |
| CO[C@@H]1[C@H](O)[C@@H](COP(=O)(O)OP(=O)([O-])OP(=O)(O)OC[C@H]2O[C@@H](n3cnc4c(=O)[nH]c(N)nc43)[C@H](O)[C@@H]2O)O[C@H]1n1c[n+](Cc2ccc(Cl)cc2)c2c(O)nc(N)nc21 [1r, 4-Cl-Bn^7GmpppG] | 190 ± 20 nM | 45 ± 7 nM | – | – | – | – | 0.99 | resistant to hDcpS | – | decreased the protein expression by twofold | – |
| Cn1c[n+]([C@@H]2O[C@H](COP(=O)(O)OP(=O)([O-])OP(=O)(O)OC[C@H]3O[C@@H](n4cnc5c(=O)[nH]c(N)nc54)[C@H](O)[C@@H]3O)[C@@H](O)[C@H]2O)c2nc(N)[nH]c(=O)c21 [m^7GpppG, reference compound] | 410 ± 10 nM | 127 ± 5 nM | – | 160 nM | – | approximately 50% | 0.49 | – | – | – | 1.0 |
